Values joined by “and” are separate entries in the source; they are usually repeats but may differ in a detail not shown here. Equal entries are not always repeated. Where two headings read alike, the source gives them in different places. Where a SMILES comes first, the peptide text is derived from it. [ ]: non-standard residue; d: D form. NMeL = CN[C@@H](CC(C)C)C(=O)O; Sar = CNCC(=O)O
Test: Pharmacokinetics and oral bioavailability of D11.2 in male SD rats (IV, PO, SQ)
Type: in vivo
Details: for half-life: read-out: T1/2z (converted); for MRT inf: in vivo
Method: In vivo bioavailability assays were conducted in mice and rats. D8.3.p1 and D10.1 were studied in female Balb/C mice by van Voorhis group at University of Washington. D11.2 was evaluated in Sprague Dawley (SD) rats by Robert Griffin’s group at Takeda Pharmaceuticals. D11.3 was studied in the male swiss albino mice by the contract research organization, GVK Biosciences Pvt. Ltd., Hyderabad, India. All animals used in these studies were handled in strict accordance with practices made to minimize suffering. All animal experiments conducted at the University of Washington, USA, and Takeda Pharmaceuticals, USA were approved by the Institutional Animal Care and Use Committee. Animal studies at GVK Biosciences were reviewed and approved by the Institutional Animal Ethics Committee of GVK Biosciences.
We selected four designed macrocycles with diverse structures and in vitro rates of permeability for in vivo oral bioavailability studies in the rodent models. Due to the intensive resource requirements for such studies, these studies were conducted by three different research groups. D8.3.p1 and D10.1 were studied in female Balb/C mice by van Voorhis group at University of Washington. D11.2 was evaluated in Sprague Dawley (SD) rats by Robert Griffin’s group at Takeda Pharmaceuticals. D11.3 was studied in the male swiss albino mice by the contract research organization, GVK Biosciences Pvt. Ltd., Hyderabad, India.
We evaluated the pharmacokinetic properties for D11.2 in male SD rats (n=3). D11.2 was dissolved in 2% DMSO/0.1% Tween80 and dosed by IV, PO, and SQ routes. Plasma samples were collected at multiple time points up to 24 hours. The quantification limit was established to be 2 ng/mL for the assay conditions tested. Pharmacokinetic parameters were modeled using the Phoenix WinNonlin software package.
Dosing vehicle: DMSO (2%) + 0.1% Tween80(IV, PO, SQ)
Dose: 1 mg/kg (PO, SQ, IV) • Sampling times: 0.083, 0.25, 0.5, 1, 2, 4, 6, 8, 24 h (PO, SQ, IV)

[1] = IV 1 mg/kg, individual rats R1, R2, R3, 1 mg/kg
[2] = PO 1 mg/kg, individual rats R4, R5, R6, 1 mg/kg
[3] = SQ 1 mg/kg, individual rats R7, R8, R9
[4] = male, Sprague Dawley, rat, plasma, iv, 1 mg/kg, IV 1 mg/kg, Mean
[5] = male, Sprague Dawley, rat, plasma, iv, 1 mg/kg, IV 1 mg/kg, individual rats R1, R2, R3
[6] = male, Sprague Dawley, rat, plasma, po, 1 mg/kg, PO 1 mg/kg, Mean
[7] = male, Sprague Dawley, rat, plasma, po, 1 mg/kg, PO 1 mg/kg, individual rats R4, R5, R6
[8] = male, Sprague-Dawley, rat, plasma, subcutaneous, 1 mg/kg, SQ 1 mg/kg, Mean
[9] = male, Sprague-Dawley, rat, plasma, subcutaneous, 1 mg/kg, SQ 1 mg/kg, individual rats R7, R8, R9

With CC[C@@H](C)[C@H]1NC(=O)[C@@H]2CCCN2C(=O)[C@@H]([C@H](C)CC)NC(=O)CN(C)C(=O)[C@H](CC(C)C)NC(=O)[C@@H](Cc2ccccc2)NC(=O)[C@H](CC(C)C)N(C)C(=O)[C@H]2CCCN2C(=O)[C@@H](CC(C)C)NC(=O)[C@H](CC(C)C)NC(=O)[C@H]2CCCN2C1=O [Design D11.2, DILE DPRO LEU DLEU DPRO *LEU DPHE LEU *GLY DILE PRO] (cyclo(L[Sar][dI]P[dI][dP]L[dL][dP][NMeL][dF])) the AUClast [1] was 702 ng·h/mL and 858 ng·h/mL, the “AUC∞” value [1] was 738 ng·h/mL and 926 ng·h/mL and the C0 [1] was 669 ng/mL and 1234 ng/mL. The CL [1] was 1.35 L/h/kg and 1.08 L/h/kg, the Cmax [1] was 796 ng/mL and 499 ng/mL and the “MRT∞” value [1] was 2.34 h and 2.51 h. The T1/2z [1] was 2.05 h and 2.74 h, the Vss [1] was 3.17 L/kg and 2.72 L/kg and the Vz [1] was 4.00 L/kg and 4.27 L/kg. The “%F” value [2] was 13.0% and 8.18%, the AUClast [2] was 89.3 ng·h/mL and 59.1 ng·h/mL and the “AUC∞” value [2] was 95.9 ng·h/mL and 75.8 ng·h/mL. For the same compound, the Cmax [2] was 35.2 ng/mL and 28.2 ng/mL, the “MRT∞” value [2] was 3.02 h and 3.86 h and the T1/2z [2] was 2.06 h and 2.53 h. For the same compound, the Tmax [2] was 15 min, the “%F” value [3] was 160% and 105% and the AUClast [3] was 741 ng·h/mL and 841 ng·h/mL. The “AUC∞” value [3] was 777 ng·h/mL and 853 ng·h/mL, the Cmax [3] was 99.4 ng/mL and 95.1 ng/mL and the “MRT∞” value [3] was 7.64 h and 6.14 h. The T1/2z [3] was 5.00 h and 3.71 h, the AUC(0-inf) [4] was 780 ng·h/mL and the AUC(0-t) [4] was 734 ng·h/mL. For the same compound, the clearance [4] was 21.8 mL/min/kg, the C0 (male, Sprague Dawley, rat, plasma, iv, 1 mg/kg, IV 1 mg/kg, Mean, read-out: C0) was 843 ng/mL and the Cmax (male, Sprague Dawley, rat, plasma, iv, 1 mg/kg, IV 1 mg/kg, Mean, read-out: Cmax) was 605 ng/mL. For the same compound, the half-life [4] was 137 min, the Tmax (male, Sprague Dawley, rat, plasma, iv, 1 mg/kg, IV 1 mg/kg, Mean, read-out: Tmax) was 5 min and the Vd (male, Sprague Dawley, rat, plasma, iv, 1 mg/kg, IV 1 mg/kg, Mean, read-out: Vss) was 3.04 L/kg. The Vd (male, Sprague Dawley, rat, plasma, iv, 1 mg/kg, IV 1 mg/kg, Mean, read-out: Vz) was 4.24 L/kg, the AUC(0-inf) [5] was 674 ng·h/mL and the AUC(0-t) [5] was 642 ng·h/mL. The clearance [5] was 24.7 mL/min/kg, the C0 (male, Sprague Dawley, rat, plasma, iv, 1 mg/kg, IV 1 mg/kg, individual rats R1, R2, R3, read-out: C0) was 626 ng/mL and the Cmax (male, Sprague Dawley, rat, plasma, iv, 1 mg/kg, IV 1 mg/kg, individual rats R1, R2, R3, read-out: Cmax) was 519 ng/mL. The half-life [5] was 125 min, the Tmax (male, Sprague Dawley, rat, plasma, iv, 1 mg/kg, IV 1 mg/kg, individual rats R1, R2, R3, read-out: Tmax) was 5 min and the Vd (male, Sprague Dawley, rat, plasma, iv, 1 mg/kg, IV 1 mg/kg, individual rats R1, R2, R3, read-out: Vss) was 3.23 L/kg. The Vd (male, Sprague Dawley, rat, plasma, iv, 1 mg/kg, IV 1 mg/kg, individual rats R1, R2, R3, read-out: Vz) was 4.46 L/kg, the AUC(0-inf) [6] was 84.3 ng·h/mL and the AUC(0-t) [6] was 71.7 ng·h/mL. It also gave a bioavailability [6] of 11.1%, a Cmax (male, Sprague Dawley, rat, plasma, po, 1 mg/kg, PO 1 mg/kg, Mean, read-out: Cmax) of 31.6 ng/mL and a half-life [6] of 140 min. It also gave a Tmax (male, Sprague Dawley, rat, plasma, po, 1 mg/kg, PO 1 mg/kg, Mean, read-out: Tmax) of 25 min, an AUC(0-inf) [7] of 81.3 ng·h/mL and an AUC(0-t) [7] of 66.8 ng·h/mL. The bioavailability [7] was 12.1%, the Cmax (male, Sprague Dawley, rat, plasma, po, 1 mg/kg, PO 1 mg/kg, individual rats R4, R5, R6, read-out: Cmax) was 31.3 ng/mL and the half-life [7] was 145 min. It also gave a Tmax (male, Sprague Dawley, rat, plasma, po, 1 mg/kg, PO 1 mg/kg, individual rats R4, R5, R6, read-out: Tmax) of 30 min, a Cmax (male, Sprague Dawley, rat, plasma, sc, 1 mg/kg, SQ 1 mg/kg, Mean, read-out: Cmax) of 109 ng/mL and a half-life (male, Sprague Dawley, rat, plasma, sc, 1 mg/kg, SQ 1 mg/kg, Mean) of 265 min. It also gave a Tmax (male, Sprague Dawley, rat, plasma, sc, 1 mg/kg, SQ 1 mg/kg, Mean, read-out: Tmax) of 240 min, a Cmax (male, Sprague Dawley, rat, plasma, subcutaneous, 1 mg/kg, SQ 1 mg/kg, individual rats R7, R8, R9, read-out: Cmax) of 131 ng/mL and a half-life (male, Sprague Dawley, rat, plasma, subcutaneous, 1 mg/kg, SQ 1 mg/kg, individual rats R7, R8, R9) of 271 min. It also gave a Tmax (male, Sprague Dawley, rat, plasma, subcutaneous, 1 mg/kg, SQ 1 mg/kg, individual rats R7, R8, R9, read-out: Tmax) of 240 min, a bioavailability (male, Sprague-Dawley, rat, plasma, sc, 1 mg/kg, SQ 1 mg/kg, individual rats R7, R8, R9) of 92.1% and an AUC(0-inf) [8] of 903 ng·h/mL. For the same compound, the AUC(0-t) [8] was 874 ng·h/mL, the bioavailability [8] was 119% and the AUC(0-inf) [9] was 1080 ng·h/mL. It also gave an AUC(0-t) [9] of 1040 ng·h/mL, an MRT inf (rat, 1 mg/kg, SQ 1 mg/kg, Mean) of 6.86 h and an MRT inf (rat, 1 mg/kg, SQ 1 mg/kg, individual rats R7, R8, R9) of 6.81 h. The MRT inf (rat, iv, 1 mg/kg, IV 1 mg/kg, Mean) was 2.35 h, the MRT inf (rat, iv, 1 mg/kg, IV 1 mg/kg, individual rats R1, R2, R3) was 2.18 h and the MRT inf (rat, po, 1 mg/kg, PO 1 mg/kg, Mean) was 3.42 h. The MRT inf (rat, po, 1 mg/kg, PO 1 mg/kg, individual rats R4, R5, R6) was 3.38 h.

From PMC9490236, “Accurate de novo design of membrane-traversing macrocycles” (Cell, 2022)
